Patent publication US7572815B2, “Amide derivative” (Ajinomoto Co., Inc., priority 2003, dated 2009)

System: male ICR mouse
Test: Acetic acid-induced writhing method
Type: in vivo
Conditions: intraperitoneal, 30 minutes before 0.8% acetic acid
Description: The effect of the test compound was considered using male ICR mouse (4-week-old) according to a writhing test method induced by acetic acid. For intraperitoneal administration of a test compound and a standard product, the test compound was dissolved in a saline containing 5% DMSO and 5% Tween 80 to a suitable concentration. The test compound was administered 30 minutes before intraperitoneal administration of 0.8% acetic acid solution (diluted with saline), and the number of writhing was measured for 15 minutes from 5 minutes after acetic acid administration. A saline containing 5% DMSO and 5% Tween 80 was intraperitoneally administered to all control groups (vehicle administration group). Using indomethacin as a standard product, the same test was performed.
The number of writhing by each test compound is shown in FIG. 1, and the number of writhings by indomethacin is shown in FIG. 2.

| Structure (SMILES) | Inhibition ratio (%) of number of writhing (dose 10 mg/kg) | Inhibition ratio (%) of number of writhing (dose 20 mg/kg) |
| --- | --- | --- |
| CCN(CCCC(=O)Nc1ccccc1Br)c1cccc(C)c1 [Example 52, N-(2-bromophenyl)-4-(ethyl-3-methylanilino)butanamide] | 19% | 67% |
| COc1ccc2c(c1)c(CC(=O)O)c(C)n2C(=O)c1ccc(Cl)cc1 [indomethacin, reference compound] | 31% | – |
